Source: patent US20200375992A1, “PHARMACEUTICAL COMPOSITION AND USE FOR APPLYING PALBOCICLIB IN DISEASE TREATMENT OF PATIENT AND INHIBITION OF PI3K ACTIVITY” (Chang Gung University, priority 2019, published 2020)

Tests used:
PI3K p110α/p85α = PI3K p110α/p85α (Homo sapiens, UniProt P42336); assay: PI3K p110α/p85α enzymatic activity, Kinase-Glo Luminescent Kinase Assay; type: biochemical; details: 3 μM, 10 μM and 30 μM of Palbociclib; p<0.001 compared with control; activity decreased with increasing concentration; n=6; FIG. 1A
PI3K p110α/p85α, sequence (P42336 whole entry): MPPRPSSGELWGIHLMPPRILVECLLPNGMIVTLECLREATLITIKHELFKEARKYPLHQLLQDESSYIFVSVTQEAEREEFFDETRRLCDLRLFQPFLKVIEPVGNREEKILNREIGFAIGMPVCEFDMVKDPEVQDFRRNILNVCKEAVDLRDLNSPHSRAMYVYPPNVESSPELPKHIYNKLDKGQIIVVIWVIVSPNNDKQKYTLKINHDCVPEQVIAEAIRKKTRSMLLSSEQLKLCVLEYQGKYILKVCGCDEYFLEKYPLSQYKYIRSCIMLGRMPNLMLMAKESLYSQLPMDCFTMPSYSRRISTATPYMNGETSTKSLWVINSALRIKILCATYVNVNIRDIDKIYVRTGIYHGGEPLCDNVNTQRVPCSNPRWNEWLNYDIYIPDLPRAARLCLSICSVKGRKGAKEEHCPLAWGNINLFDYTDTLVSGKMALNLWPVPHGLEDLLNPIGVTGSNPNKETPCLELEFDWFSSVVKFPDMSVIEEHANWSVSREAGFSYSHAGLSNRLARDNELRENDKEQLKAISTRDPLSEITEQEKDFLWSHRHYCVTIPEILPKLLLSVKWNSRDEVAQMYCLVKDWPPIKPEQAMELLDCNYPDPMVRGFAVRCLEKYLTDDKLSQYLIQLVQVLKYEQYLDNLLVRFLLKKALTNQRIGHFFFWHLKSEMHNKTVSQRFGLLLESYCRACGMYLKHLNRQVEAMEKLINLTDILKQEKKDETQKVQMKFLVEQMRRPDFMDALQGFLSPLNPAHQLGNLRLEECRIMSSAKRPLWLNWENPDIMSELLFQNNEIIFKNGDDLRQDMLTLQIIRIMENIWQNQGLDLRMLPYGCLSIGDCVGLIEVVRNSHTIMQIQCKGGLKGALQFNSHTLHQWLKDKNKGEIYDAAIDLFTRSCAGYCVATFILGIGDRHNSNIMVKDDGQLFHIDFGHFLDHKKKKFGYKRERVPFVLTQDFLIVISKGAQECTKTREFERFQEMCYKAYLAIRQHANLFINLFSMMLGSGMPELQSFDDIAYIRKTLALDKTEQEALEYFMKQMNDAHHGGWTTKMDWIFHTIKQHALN
PI3K p110α/p85α, sequence (P27986 whole entry partner): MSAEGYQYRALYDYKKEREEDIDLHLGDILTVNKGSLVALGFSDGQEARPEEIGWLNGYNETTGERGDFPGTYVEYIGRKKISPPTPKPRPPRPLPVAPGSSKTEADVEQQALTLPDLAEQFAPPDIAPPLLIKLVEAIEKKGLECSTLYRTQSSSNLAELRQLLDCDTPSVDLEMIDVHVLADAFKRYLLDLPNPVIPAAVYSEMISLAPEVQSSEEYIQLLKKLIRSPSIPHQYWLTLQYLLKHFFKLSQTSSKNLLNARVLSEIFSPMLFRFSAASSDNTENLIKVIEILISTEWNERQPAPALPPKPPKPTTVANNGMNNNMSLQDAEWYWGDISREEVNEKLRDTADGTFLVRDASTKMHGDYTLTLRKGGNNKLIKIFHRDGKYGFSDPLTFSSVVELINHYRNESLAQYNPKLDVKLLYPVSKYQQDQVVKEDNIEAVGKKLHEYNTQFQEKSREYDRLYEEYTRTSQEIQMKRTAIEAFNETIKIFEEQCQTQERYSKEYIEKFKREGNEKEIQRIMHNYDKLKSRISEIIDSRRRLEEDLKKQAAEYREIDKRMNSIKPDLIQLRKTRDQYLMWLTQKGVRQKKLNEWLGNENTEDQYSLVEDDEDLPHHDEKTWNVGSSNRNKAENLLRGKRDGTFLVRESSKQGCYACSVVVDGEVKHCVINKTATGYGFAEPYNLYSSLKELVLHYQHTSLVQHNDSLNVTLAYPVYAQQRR
Protocol: (§1) Palbociclib was dissolved in ddH2O (as solvent) and then added to the reagents which contain PI3K p110α/p85α (50 ng/ml), PI3K p110β/p85α (150 ng/ml), or PI3K p110δ/p85α (50 ng/ml). The final concentration of Palbociclib was 0.1 to 30 μM. Then, the mixtures were incubated for 10 minutes at 25° C. The reagent which was added by ddH2O (solvent, marked as “−” in FIGS. 1A-1C) instead of Palbociclib was as a control in this experiment. 2.5X ATP/substrate was added to each reagent and then further incubated for 60 minutes. Finally, enzymatic activities of PI3K were analyzed according to the user manual of Kinase-Glo® Luminescent Kinase Assays (Promega Corporation, catalog number V1690) and luminometer (TECAN infinite 200 Pro) by using Kinase-Glo® Luminescent Kinase Assays.

PI3K p110β/p85α = PI3K p110β/p85α (Homo sapiens, UniProt P42338); assay: PI3K p110β/p85α enzymatic activity, Kinase-Glo Luminescent Kinase Assay; type: biochemical; details: 3 μM, 10 μM and 30 μM of Palbociclib; p<0.001 compared with control; activity decreased with increasing concentration; n=6; FIG. 1B
PI3K p110β/p85α, sequence (P42338 whole entry): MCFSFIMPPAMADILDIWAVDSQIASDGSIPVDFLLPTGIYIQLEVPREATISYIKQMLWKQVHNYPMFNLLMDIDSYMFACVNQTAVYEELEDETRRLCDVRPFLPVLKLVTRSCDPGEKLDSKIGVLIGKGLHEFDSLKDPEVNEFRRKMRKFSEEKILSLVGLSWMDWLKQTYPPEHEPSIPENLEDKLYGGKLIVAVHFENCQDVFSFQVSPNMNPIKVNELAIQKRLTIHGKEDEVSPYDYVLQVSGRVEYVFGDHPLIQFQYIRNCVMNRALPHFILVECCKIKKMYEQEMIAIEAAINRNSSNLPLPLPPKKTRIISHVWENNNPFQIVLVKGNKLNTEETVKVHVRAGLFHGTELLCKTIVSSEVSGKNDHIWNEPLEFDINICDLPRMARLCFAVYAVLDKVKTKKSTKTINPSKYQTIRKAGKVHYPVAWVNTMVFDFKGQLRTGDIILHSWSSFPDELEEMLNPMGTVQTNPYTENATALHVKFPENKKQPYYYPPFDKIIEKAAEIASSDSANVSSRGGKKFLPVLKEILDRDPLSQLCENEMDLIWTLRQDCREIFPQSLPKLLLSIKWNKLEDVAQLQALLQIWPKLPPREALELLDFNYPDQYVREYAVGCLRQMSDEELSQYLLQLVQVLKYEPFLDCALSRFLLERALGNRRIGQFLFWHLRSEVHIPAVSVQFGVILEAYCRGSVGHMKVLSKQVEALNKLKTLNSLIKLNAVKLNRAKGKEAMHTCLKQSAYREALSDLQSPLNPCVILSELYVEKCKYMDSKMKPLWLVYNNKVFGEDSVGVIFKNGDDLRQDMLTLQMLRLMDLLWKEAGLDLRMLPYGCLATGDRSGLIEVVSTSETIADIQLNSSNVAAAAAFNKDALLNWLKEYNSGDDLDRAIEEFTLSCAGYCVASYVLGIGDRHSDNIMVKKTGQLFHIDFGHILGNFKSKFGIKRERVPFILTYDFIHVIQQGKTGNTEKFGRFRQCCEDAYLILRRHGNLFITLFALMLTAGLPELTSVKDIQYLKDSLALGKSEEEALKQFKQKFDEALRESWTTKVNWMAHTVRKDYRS
PI3K p110β/p85α, sequence (P27986 whole entry partner): as the sequence (P27986 whole entry partner) above
Protocol: as §1

PI3K p110δ/p85α = PI3K p110δ/p85α (Homo sapiens, UniProt O00329); assay: PI3K p110δ/p85α enzymatic activity, Kinase-Glo Luminescent Kinase Assay; type: biochemical; details: 0.1 μM, 1 μM and 10 μM of Palbociclib; p<0.001 compared with control; activity decreased with increasing concentration; n=6; FIG. 1C
PI3K p110δ/p85α, sequence (O00329 whole entry): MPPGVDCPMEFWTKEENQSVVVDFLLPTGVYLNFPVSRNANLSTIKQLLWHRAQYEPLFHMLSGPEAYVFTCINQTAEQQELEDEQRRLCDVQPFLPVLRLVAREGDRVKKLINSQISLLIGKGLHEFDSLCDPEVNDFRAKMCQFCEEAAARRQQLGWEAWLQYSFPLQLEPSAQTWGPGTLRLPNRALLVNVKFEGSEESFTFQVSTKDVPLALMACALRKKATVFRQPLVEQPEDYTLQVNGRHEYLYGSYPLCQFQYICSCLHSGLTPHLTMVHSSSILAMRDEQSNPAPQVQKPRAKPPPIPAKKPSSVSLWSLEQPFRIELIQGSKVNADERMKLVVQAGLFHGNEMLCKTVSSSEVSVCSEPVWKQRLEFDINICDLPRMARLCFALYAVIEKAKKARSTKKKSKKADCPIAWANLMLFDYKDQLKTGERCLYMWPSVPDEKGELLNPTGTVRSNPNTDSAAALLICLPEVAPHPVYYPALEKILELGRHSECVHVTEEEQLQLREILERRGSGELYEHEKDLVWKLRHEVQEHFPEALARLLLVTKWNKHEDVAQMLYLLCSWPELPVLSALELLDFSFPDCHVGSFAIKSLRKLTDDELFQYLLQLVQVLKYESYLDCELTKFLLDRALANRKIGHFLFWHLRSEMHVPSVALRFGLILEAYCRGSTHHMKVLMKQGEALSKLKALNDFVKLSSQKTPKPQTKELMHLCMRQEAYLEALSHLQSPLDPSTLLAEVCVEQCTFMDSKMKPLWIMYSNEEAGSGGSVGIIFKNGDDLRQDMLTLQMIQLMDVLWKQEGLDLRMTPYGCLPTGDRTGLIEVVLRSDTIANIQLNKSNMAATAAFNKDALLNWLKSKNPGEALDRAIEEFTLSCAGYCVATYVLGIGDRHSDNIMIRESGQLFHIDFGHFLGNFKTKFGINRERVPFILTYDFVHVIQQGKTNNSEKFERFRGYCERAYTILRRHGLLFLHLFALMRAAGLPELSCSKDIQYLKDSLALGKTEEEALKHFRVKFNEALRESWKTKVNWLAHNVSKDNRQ
PI3K p110δ/p85α, sequence (P27986 whole entry partner): as the sequence (P27986 whole entry partner) above
Protocol: as §1

[1] = tested on: fMLF-stimulated neutrophils; assay: Superoxide anion generation in fMLF-stimulated neutrophils (ferricytochrome c reduction, OD550); type: cell-based; details: 1 μM, 3 μM and 10 μM of Palbociclib; human neutrophils stimulated with fMLF (0.1 μM)/cytochalasin B; compared with control; decreased with increasing concentration; FIG. 2A
Protocol: (§2) The informed consent to participate which was approved by the Institutional Review Board are signed by the donors. 50 mL of blood was collected from the median cubital vein of each donor by sterile vacutainer, and was used to isolate neutrophils for the following experiments.
(§3) Human neutrophils (isolated from whole blood of donors) were incubated with ddH2O (as solvent, marked as “−” in the groups at X-axis in FIGS. 2A and 2B) or Palbociclib (0.3-10 μM, dissolved in ddH2O) for 5 minutes, and then stimulated the neutrophils with or without fMLF (0.1 μM)/cytochalasin B (CB, 1 μg/ml) for another 10 minutes to activate the neutrophils. The absorbances (OD550 and OD450) of the reaction mixture were then measured by a spectrophotometer at OD 550 nm and OD 450 nm. The reading of OD550 is used to detect the reduction of ferricytochrome c, which indicates the amount of superoxide anion. The reading of OD450 is used to detect the status of Methoxysuccinyl-Ala-Ala-Val-p-nitroanilide (which is a specific substrate of elastase) affected by elastase, which indicates the release amount and activity of elastase. Cytochalasin B was sold by Sigma-Aldrich, catalog number #2506; fMLF was sold by Sigma-Aldrich, catalog number #454454; model number of the spectrophotometer is HITACHI U-3010. […]

[2] = tested on: fMLF-stimulated neutrophils; assay: Elastase release in fMLF-stimulated neutrophils (Methoxysuccinyl-Ala-Ala-Val-p-nitroanilide, OD450); type: cell-based; details: 3 μM and 10 μM of Palbociclib; human neutrophils stimulated with fMLF (0.1 μM)/cytochalasin B; compared with control; decreased with increasing concentration; FIG. 2B
Protocol: as §2, §3

IMQ-treated mice = assay: Psoriasis-like symptoms in IMQ-treated mice; type: in vivo, Male BALB/c mice
Protocol: 500 μg of Palbociclib was dissolved in 100 μl of 60% ethanol to make a pharmaceutical composition. The Palbociclib concentration of the pharmaceutical composition was 500 μg/100 μl and used in the subsequent animal experimental example 4. Male BALB/c mice (7-9 weeks of age, the body weight of each mouse is about 20 g) were divided into different groups, and each group has 6 mice. Each mouse was epilation on the back and then treated with 100 μl of solvent (60% ethanol) or 100 μl of the pharmaceutical composition prepared in example 3 (the concentration of Palbociclib is 25 mg/kg of body weight) by applying on the nude back skin before topical treatment of imiquimod (IMQ, sold by 3M Health Care Limited). And then applying with or without IMQ on the nude back skin of mice to cause psoriasis-like symptom. Each treatment was given once per day for 5 consecutive days. The mice which applying solvent and IMQ is played as the control. The mice which merely applying solvent or Palbociclib without IMQ are played as the blank 1 and blank 2.

PI3K p110α/p85α activity (PI3K p110α/p85α): significantly inhibit | PI3K p110β/p85α activity (PI3K p110β/p85α): significantly inhibit | PI3K p110δ/p85α activity (PI3K p110δ/p85α): significantly inhibit
SMILES: CC(=O)c1c(C)c2cnc(Nc3ccc(N4CCNCC4)cn3)nc2n(C2CCCC2)c1=O [Palbociclib, 6-acetyl-8-cyclopentyl-5-methyl-2-((5-(piperazin-1-yl)pyridin-2-yl)amino)pyrido [2,3-d]pyrimidin-7(8H)-one]
generation of superoxide anion [1]: significantly restrict | release of elastase [2]: significantly restrict | psoriasis-like symptoms (enlarged skin photos by handheld digital microscope, FIG. 3B) (IMQ-treated mice; Palbociclib 25 mg/kg topical on back skin and IMQ, once per day, after the treatment in 5th day, control shows symptoms from 3rd day): not observed | psoriasis-like symptoms (skin photos, FIG. 3A) (IMQ-treated mice; Palbociclib 25 mg/kg topical on back skin then IMQ, once per day for 5 days, compared with control (solvent and IMQ), 5th day): significantly improved
